Experimental findings from patent US11873295B2, “Allosteric chromenone inhibitors of phosphoinositide 3-kinase (PI3K) for the treatment of disease” (Petra Pharma Corporation, priority 2021, dated 2024) are described below.

Assay [1] relates to PI3K-α (PIK3CA) in MDA-MB-453 cells. The assay is described as follows: PI3K-alpha kinase (PIK3CA) activity in vitro cell based assay, MDA-MB-453 cells, AlphaLisa SureFire. The conditions noted are these: 0% FBS, 3 hours treatment, relative IC50. As for the experimental part:
PI3K-Alpha Kinase (PIK3CA) Activity In Vitro Cell Based Assay and Determining IC50 Values for Inhibitors
The MDA-MB-453 (ATCC-HTB-131) cell line was obtained from the American Type Culture Collection (Manassas, VA). Cells were maintained in Dulbecco's Modified Eagle Media (DMEM, Gibco 11965-092) supplemented with 10% Fetal Bovine Serum, heat inactivated (FBS HI, Gibco 10082-147), 1× non-essential amino acids (NEAA, Gibco 11140-050), and 1 mM sodium pyruvate (Gibco 11360-070). Cultures were maintained in a humidified incubator at 37° C. under 5% CO2/95% air.
For compound testing in 0% FBS, MDA-MB-453 cells were seeded at a density of 1.5×10^4 cells per well in white 384-well plates in 20 μl of Minimum Essential Media (MEM) assay media with 1×NEAA, 1 mM sodium pyruvate, and 1 μg/mL human insulin (Sigma I9278). Compounds dissolved in 10 mM stock solutions in DMSO were serially diluted 1:3 in DMSO to generate a 10-point dilution series and plated using an acoustic liquid handler system (Echo 550 Series Liquid Handler, Labcyte). A 5× intermediate compound dilution plate in MEM with 1×NEAA and 1 mM sodium pyruvate (150 μM starting compound concentration in 1.5% DMSO) was then prepared. Five μl of the intermediate serially diluted compounds were added to the cell plate to final concentrations ranging from […] in 0.3% DMSO. 0.3% DMSO alone was used to establish the maximum (MAX) signal and GDC-0032 at a final concentration of 1 μM was used as a reference compound for the minimum (MIN) signal. After 3 hours treatment, the medium was removed, and the cells lysed in 10 μL of 1× SureFire Lysis buffer with shaking for 10 minutes at room temperature. The Acceptor Mix (Reaction Buffer 1+Reaction Buffer 2+Activation Buffer+SureFire Ultra Acceptor Beads) was prepared by diluting Activation buffer 25-fold in combined Reaction Buffer 1 and Reaction Buffer 2. The Acceptor beads were diluted 50-fold in the combined Reaction Buffers. Five μL of Acceptor Mix was added to each well, the plate was sealed and covered with foil and incubated for 1 hour at room temperature. The Donor Mix (dilution buffer+SureFire Ultra Donor Beads) was prepared by diluting Donor Beads 50-fold in dilution buffer. Five μL of the Donor Mix was added to each well and the plate sealed and covered with foil and incubated for 1 hour at room temperature in the dark. The plates were read on a Neo2 plate reader instrument from Biotek using standard AlphaLisa settings. Compounds were tested in duplicate and the average % inhibition at each compound concentration was used to generate a single dose response curve. The data were processed using the Genedata-Screener tool. Relative IC50 values were determined using luminescence units by calculating percent inhibition with respect to the in-plate “MIN” (GDC-0032 reference control) and “MAX” (DMSO) controls. The data was analyzed using a 4-parameter nonlinear logistic equation (four-parameter logistic concentration-response curve): Y=bottom+[(top−bottom)/1+(X/IC50)slope] where Y=% inhibition, X=concentration of inhibitor, bottom=minimum value of y attained by curve-fit, top=maximum value of y attained by curve-fit and slope=steepness of curve at the IC50. % Inhibition=[(signal at X−median Min)/(median Max−median Min)]×100 IC50: concentration of compound that reduces a given response (ligand binding, enzyme response) by 50%. Relative IC50: concentration giving half the compound's maximum response.
For IC50 values shown in Table B, “A” means IC50<50 nM; “B” means IC50 ranging between 50 nM and 100 nM; “C” means IC50 ranging between 100 nM and 500 nM; “D” means IC50>500 nM.

Assay [2] concerns the target T1, human full length PIK3KA Wild-type (p110α/p85α complex) (Homo sapiens, UniProt P42336).
T1 construct: Recombinant, catalytically active human full length PIK3KA Wild-type and H1047R mutant were purchased as 1:1 complex; 6xHis (N); purchased EMD Millipore Sigma 14-602M
The assay is described as follows: PI3K-alpha kinase (PIK3CA) biochemical activity, wild-type, ADP-Glo. The conditions noted are these: PI3K-α (PIK3CA) biochemical, Soy PI lipid substrate. Put shortly:
(§1)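 ADP formation, read by ADP-Glo, is run to about 10% ATP turnover at 27 °C with 20 μM ATP and 50 μM PIP2diC8 or soy PI. WT or H1047R p110α/p85α (1–5 nM) is pre-incubated 1 h with compound in HEPES pH 7.4/MgCl2/Triton buffer, 1% DMSO. 10-point 1:3 series, logistic IC50 versus no-enzyme and DMSO controls.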
(ADP-Glo first removes unused ATP, then detects ADP through luciferase.)

Assay [3] concerns the target T2, human full length PIK3KA H1047R mutant (p110α/p85α complex) (Homo sapiens, UniProt P42336, H1047R).
T2 construct: Recombinant, catalytically active human full length PIK3KA Wild-type and H1047R mutant were purchased as 1:1 complex; 6xHis (N); purchased EMD Millipore Sigma 14-792M
Nature of the assay: PI3K-alpha kinase (PIK3CA) biochemical activity, H1047R mutant, ADP-Glo. Conditions: PI3K-α (PIK3CA) biochemical, H1047R mutant, Soy PI lipid substrate. Put shortly:
as §1

Each structure is given as a SMILES string. Bounds are passed on as bounds.

T2 sequence (P42336 whole entry H1047R): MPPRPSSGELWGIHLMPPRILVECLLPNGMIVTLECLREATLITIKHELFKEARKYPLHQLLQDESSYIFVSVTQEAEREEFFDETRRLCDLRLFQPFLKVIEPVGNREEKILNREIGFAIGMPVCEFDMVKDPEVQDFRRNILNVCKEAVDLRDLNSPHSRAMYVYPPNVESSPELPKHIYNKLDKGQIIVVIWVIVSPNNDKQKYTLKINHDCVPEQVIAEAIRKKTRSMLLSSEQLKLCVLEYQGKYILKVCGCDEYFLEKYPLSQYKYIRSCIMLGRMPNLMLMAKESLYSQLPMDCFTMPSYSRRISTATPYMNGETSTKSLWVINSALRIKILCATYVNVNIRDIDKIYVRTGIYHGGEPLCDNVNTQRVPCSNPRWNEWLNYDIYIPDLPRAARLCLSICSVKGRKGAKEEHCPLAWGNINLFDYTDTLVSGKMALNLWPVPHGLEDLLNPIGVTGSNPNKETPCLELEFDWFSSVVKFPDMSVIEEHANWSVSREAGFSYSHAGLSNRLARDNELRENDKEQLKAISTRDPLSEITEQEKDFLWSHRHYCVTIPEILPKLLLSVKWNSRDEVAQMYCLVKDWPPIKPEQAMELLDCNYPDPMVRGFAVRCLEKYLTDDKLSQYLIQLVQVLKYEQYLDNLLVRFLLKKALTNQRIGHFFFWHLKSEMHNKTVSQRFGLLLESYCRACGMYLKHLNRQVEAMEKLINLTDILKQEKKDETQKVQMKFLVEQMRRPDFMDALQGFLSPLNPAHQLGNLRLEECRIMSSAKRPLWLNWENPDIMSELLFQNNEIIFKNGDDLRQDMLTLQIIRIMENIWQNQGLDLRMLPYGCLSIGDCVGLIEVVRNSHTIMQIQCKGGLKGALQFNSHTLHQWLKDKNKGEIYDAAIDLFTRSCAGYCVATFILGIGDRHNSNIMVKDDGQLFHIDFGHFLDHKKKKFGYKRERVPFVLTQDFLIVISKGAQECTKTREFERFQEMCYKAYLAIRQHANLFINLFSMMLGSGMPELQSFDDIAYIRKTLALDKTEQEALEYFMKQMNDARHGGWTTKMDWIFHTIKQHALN
T2 sequence (P27986 whole entry partner): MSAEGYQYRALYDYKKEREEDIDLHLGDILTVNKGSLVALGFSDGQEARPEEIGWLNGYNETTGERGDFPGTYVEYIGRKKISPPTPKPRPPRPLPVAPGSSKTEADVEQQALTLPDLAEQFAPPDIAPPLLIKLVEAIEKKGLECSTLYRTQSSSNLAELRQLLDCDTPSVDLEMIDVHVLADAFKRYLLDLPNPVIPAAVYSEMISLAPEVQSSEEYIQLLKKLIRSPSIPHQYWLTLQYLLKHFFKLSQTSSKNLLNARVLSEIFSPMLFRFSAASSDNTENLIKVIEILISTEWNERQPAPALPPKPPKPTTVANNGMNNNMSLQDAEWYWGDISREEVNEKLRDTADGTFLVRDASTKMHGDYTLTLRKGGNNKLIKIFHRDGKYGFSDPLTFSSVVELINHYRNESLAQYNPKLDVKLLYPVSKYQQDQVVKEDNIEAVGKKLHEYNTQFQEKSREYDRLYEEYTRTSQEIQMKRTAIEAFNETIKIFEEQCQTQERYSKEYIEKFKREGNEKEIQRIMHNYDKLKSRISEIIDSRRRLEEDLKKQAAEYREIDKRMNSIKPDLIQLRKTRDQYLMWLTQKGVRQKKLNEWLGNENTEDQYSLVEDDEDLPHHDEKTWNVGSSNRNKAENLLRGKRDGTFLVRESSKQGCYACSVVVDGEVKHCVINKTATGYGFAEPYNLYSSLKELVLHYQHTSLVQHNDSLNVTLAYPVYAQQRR

What is called IC50 is the concentration that gives 50% inhibition. Read a low IC50 as inhibition by little substance. For `Cc1cc([C@@H](C)Nc2ccc(C#N)nc2C(=O)O)c2oc(-c3ccccc3)c(C)c(=O)c2c1` (single isomer, unassigned; isomer 2) [Example 160], the 50% inhibitory concentration (IC50) was 100 to 500 nM in assay [1], 1000 to 5000 nM in assay [2] and under 500 nM in assay [3].

Turning to `C[C@@H](Nc1ccc(Cl)nc1C(=O)O)c1cc(C(F)(F)F)cc2c(=O)cc(-c3ccc(F)cc3F)oc12` [Example 81, 6-Chloro-3-[[(1R)-1-[2-(2,4-difluorophenyl)-4-oxo-6-(trifluoromethyl)-chromen-8-yl]ethyl]amino]pyridine-2-carboxylic acid], the IC50 in assay [1] (Homo sapiens, MDA-MB-453, 3 h) was under 50 nM; in assay [2], 1000 to 5000 nM; in assay [3] it was under 500 nM.

As to `Cc1cc([C@@H](C)Nc2cccnc2C(=O)O)c2oc(-c3ccccc3F)c(C)c(=O)c2c1` [Example 142, 3-[[(1R)-1-[2-(2-Fluorophenyl)-3,6-dimethyl-4-oxo-chromen-8-yl]ethyl]amino]pyridine-2-carboxylic acid], the IC50 in assay [1] (Homo sapiens, MDA-MB-453, 3 h) was 50 to 100 nM; in assay [2], over 10000 nM; in assay [3], 1000 to 5000 nM.

For the compound `Cc1cc([C@@H](C)Nc2ccc(C(F)(F)F)nc2C(=O)O)c2oc(-c3ccccc3)c(C)c(=O)c2c1` [Example 26, 3-[[(1R)-1-(3,6-Dimethyl-4-oxo-2-phenyl-chromen-8-yl)ethyl]amino]-6-(trifluoromethyl)-pyridine-2-carboxylic acid], the IC50 in assay [1] (Homo sapiens, MDA-MB-453, 3 h) was 50 to 100 nM; in assay [2], 500 to 1000 nM; in assay [3] it was under 500 nM.

Consider `Cc1cc([C@@H](C)Nc2ccccc2C(=O)O)c2oc(-c3ccc(C(C)(C)C#N)cc3)cc(=O)c2c1` [Example 25], for which the IC50 was 50 to 100 nM in assay [1] (Homo sapiens, MDA-MB-453, 3 h); 1000 to 5000 nM in assay [2]; under 500 nM in assay [3].

As for `Cc1cc([C@@H](C)Nc2ccccc2C(=O)O)c2oc(-c3cc(F)cc(F)c3)cc(=O)c2c1` [Example 68, 2-[[(1R)-1-[2-(3,5-Difluorophenyl)-6-methyl-4-oxo-chromen-8-yl]ethyl]amino]benzoic acid 2,2,2-trifluoroacetic acid], the IC50 in assay [1] (Homo sapiens, MDA-MB-453, 3 h) is under 50 nM; in assay [2] it was 1000 to 5000 nM; in assay [3] it was under 500 nM.

Consider `COC(=O)c1ccc(-c2oc3c([C@@H](C)Nc4ccccc4C(=O)O)cc(C)cc3c(=O)c2C)cc1` [Example 149, 2-[[(1R)-1-[2-(4-Methoxycarbonylphenyl)-3,6-dimethyl-4-oxo-chromen-8-yl]ethyl]amino]benzoic acid], for which the IC50 in assay [1] (Homo sapiens, MDA-MB-453, 3 h) was under 50 nM; in assay [2], 1000 to 5000 nM; in assay [3], under 500 nM.

As to `Cc1cc([C@@H](C)Nc2ccccc2C(=O)O)c2oc(-c3ccccc3F)c(C)c(=O)c2c1` [Example 44, 2-[[(1R)-1-[2-(2-Fluorophenyl)-3,6-dimethyl-4-oxo-chromen-8-yl]ethyl]amino]benzoic acid], the IC50 is under 50 nM in assay [1] (Homo sapiens, MDA-MB-453, 3 h); 1000 to 5000 nM in assay [2]; under 500 nM in assay [3].

Turning to `Cc1cc([C@@H](C)Nc2ccccc2C(=O)O)c2oc(-c3ccc(F)cc3)c(C)c(=O)c2c1` [Example 29, 2-[[(1R)-1-[2-(4-Fluorophenyl)-3,6-dimethyl-4-oxo-chromen-8-yl]ethyl]amino]benzoic acid], the IC50 in assay [1] (Homo sapiens, MDA-MB-453, 3 h) was under 50 nM; in assay [2] it was 500 to 1000 nM; in assay [3], under 500 nM.

Consider `Cc1cc([C@@H](C)Nc2ccccc2C(=O)O)c2oc(-c3cccc(F)c3)c(C)c(=O)c2c1` [Example 28, 2-[[(1R)-1-[2-(3-Fluorophenyl)-3,6-dimethyl-4-oxo-chromen-8-yl]ethyl]amino]benzoic acid], for which the IC50 was under 50 nM in assay [1] (Homo sapiens, MDA-MB-453, 3 h); 1000 to 5000 nM in assay [2]; under 500 nM in assay [3].

Take `Cc1cc([C@@H](C)Nc2ccc(Cl)cc2C(=O)O)c2oc(-c3ccccc3)c(C)c(=O)c2c1` [Example 41, 5-Chloro-2-[[(1R)-1-(3,6-dimethyl-4-oxo-2-phenyl-chromen-8-yl)ethyl]amino]benzoic acid]: the IC50 is under 50 nM in assay [1] (Homo sapiens, MDA-MB-453, 3 h); 1000 to 5000 nM in assay [2]; under 500 nM in assay [3].
